From US10105467B2, “Biocompatible polymer compositions for tissue void filling” (Rutgers, The State University of New Jersey, priority 2013, dated 2018)

Experiments:
[1] = test system: MDA-MB-231 breast cancer cells; assay: In vitro cytotoxicity, Alamar blue metabolic assay, scaffolds in transwell inserts; format: cell-based
Experimental: MDA-MB-231 breast cancer cells and primary human dermal fibroblasts (HDFs) were obtained from the ATCC (USA). Both cell types were cultured in DMEM supplemented with 10% fetal bovine serum (FBS) and 25 μg/mL Gentamicin. For toxicity studies HDFs were seeded at 5,000 cells per well/1 mL medium in a 12-well plate and allowed to reach confluency prior to application of experimental conditions. MDA-MB-231 cell were seeded in 12-well plates at a seeding density of 5,000 per well/1 mL medium and incubated at 37° C. in a humidified atmosphere of 95% air and 5% CO2 for 24 h prior to application of experimental conditions. […]
Cells subjected to these experimental conditions were allowed to culture for 6 days at which point cell viability was measured using Alamar blue metabolic assay. […] The supernatant from each well was transferred to a 96-well plate and was measured using a fluorescence plate reader (Tecan, Männedorf, Switzerland) by applying wavelength excitation of 560 nm and read it at emission of 590 nm, which is directly correlated to the viable cell number, and inversely correlated with the toxicity of the cross-linked polymer tissue scaffolds. The mean absorbance for each treatment was determined and then expressed as a percent of viability relative to the control. […]

rabbit liver esterase = assay: Incubation with rabbit liver esterase, HPLC analysis; format: in vitro ADME; conditions: 30 min

Row | Compound | IC50 ([1]; Homo sapiens, 144 h, MDA-MB-231, 6 days, free curcumin dissolved in DMSO, diluted in media, max 1% DMSO) | curcumin uptake by cells or degradation after addition to media ([1]; free curcumin added to cell culture media) | conversion to the free acid (rabbit liver esterase)
1 | COc1cc(/C=C/C(=O)CC(=O)/C=C/c2ccc(O)c(OC)c2)ccc1O [free curcumin, curcumin] | 14 µM | less than 48 hours | –
2 | CCOC(=O)[C@H](Cc1ccc(O)cc1)NC(=O)CCc1ccc(O)cc1 [DTE, desaminotyrosyl-tyrosine ethyl ester] | – | – | approximately 70%
